In patent US10080366B2, “Agent for increasing sugar content in fruit” (RIKEN, priority 2012, dated 2018):
Where two headings read alike, the source gives them in different places.

Tests used:
[1] = system: fruit of grape (variety: Red Globe)
Protocol: Agents for increasing a sugar content in a fruit (containing Sorbon T-20 as a spreader/sticker at a final concentration of 200 μL/L) diluted with water to have the concentrations of potassium hydrogen carbonate shown in Table 4 were prepared. The mass of fruit of grape (variety: Red Globe) purchased on the market was measured. Then, the prepared agents for increasing a sugar content in a fruit were applied by spraying to the fruit of grape, which was then allowed to stand in an air-conditioned greenhouse (temperature: 25° C.). The mass of the fruit of grape was measured over time (date of application: Mar. 10, 2011). In addition, as a control, the mass of untreated grape was measured on each date of measurement in the same manner. […] Note that the decrease ratio (cumulative, %) represents the percentage (%) of the mass decreased from the date of application to each of the dates of measurement, and the decrease ratio (%/day) represents the average ratio (%) of decrease in mass in a period between each of the dates of measurement and the preceding date of measurement (=(the mass (g) on the preceding date of measurement of each of the dates of measurement−the mass (g) on the date of measurement)/the mass (g) on the preceding date of measurement of the date of measurement/the number of days from the preceding date of measurement of the date of measurement to the date of measurement×100).

Celery = conditions: 10 g/L aqueous solution at intervals of one week; browning index 0-5, five plants
Excerpt: (§1) In general, calcium deficiency in lettuce and celery occurs from summer to fall. Heart rot symptom develops in lettuce, and change in color and blackening of new leaves develop in celery. In addition, tipburn may also occur in lettuce. A 10 g/L aqueous potassium hydrogen carbonate solution was applied at intervals of one week to lettuce and celery in which no symptom of calcium deficiency had yet developed, and whether or not the symptom became milder than that of an untreated group was observed. Five plants were subjected to each treatment, and the degree of the symptom of calcium deficiency was determined on the basis of the degree of browning of leaves at the harvest.
(§2) 0: no browning, 0.5: browning occurred only in very small portions on the edges of leaves, 1.0: browning occurred in portions on the edges of […], 2.0: browning occurred from edges of leaves to the inside, 3.0: the degree of browning was considerable, 5.0: the browning of leaves was remarkable. Degree of occurrence=(Index 5×the number of plants in which the corresponding blowing occurred+Index 3×the number of plants in which the corresponding blowing occurred+Index 2×the number of plants in which the corresponding blowing occurred+Index 1×the number of plants in which the corresponding blowing occurred+Index 0.5×the number of plants in which the corresponding blowing occurred)/5 plants

Lettuce (Great Lakes) = conditions: 10 g/L aqueous solution at intervals of one week; browning index 0-5, five plants
Excerpt: as §1, §2

[2] = system: Grape (fruit: Cabernet Sauvignon); conditions: 10 g/L, three times at intervals of one week
Excerpt: (§3) To each of the plants shown in Table 16 below, an aqueous potassium hydrogen carbonate solution (5 g/L for lettuce and 10 g/L for the other plants) was applied three times at intervals of one week from one month before the harvest. The plants were harvested three weeks after the start of the application. Untreated plants not treated with the aqueous potassium hydrogen carbonate solution were harvested at the same time. After the harvest, the total amount of amino acids in each sample was determined, and the ratio of the total amount of amino acids in the plant treated with potassium hydrogen carbonate to the total amount of amino acids in the untreated plant was determined.

[3] = system: Lettuce (leaves: Great Lakes); conditions: 5 g/L, three times at intervals of one week
Excerpt: as §3

[4] = system: Rice plant (grains: Nipponbare); conditions: 10 g/L, three times at intervals of one week
Excerpt: as §3

Tomato (fruit: Regina) = conditions: 10 g/L, three times at intervals of one week
Excerpt: as §3

[5] = system: Wheat (grains: Norin No. 61); conditions: 10 g/L, three times at intervals of one week
Excerpt: as §3

[6] = system: fruit of trellised grape (variety: Pinot noir)
Protocol: To fruit of trellised grape (variety: Pinot noir), an aqueous potassium hydrogen carbonate solution (20 g/L) was applied three times at intervals of one week. The fruit was harvested 21 days after the first application, and the sugar content, acidity, and amino acid concentration were measured. In addition, the harvested fruit was kept in an air-conditioned greenhouse (25° C.) for 10 days, and the drying state of the fruit was observed.

## O=C([O-])O.[K+] [Potassium hydrogen carbonate, potassium hydrogen carbonate]
[1]; 5 g/L and 10 g/L
  ratio of decrease in mass compared with untreated: higher ratios of decrease in mass than the untreated fruit
[1]; 5 g/L, Mar. 10 (date of application)
  Mass: 240.4 g
[1]; 5 g/L, Mar. 11
  Decrease ratio (%/day): 2.6 %/day
  Decrease ratio (cumulative %): 2.6%
  Mass: 234.1 g
[1]; 5 g/L, Mar. 14
  Decrease ratio (%/day): 2.5 %/day
  Decrease ratio (cumulative %): 9.9%
  Mass: 216.7 g
[1]; 5 g/L, Mar. 15
  Decrease ratio (%/day): 2.5 %/day
  Decrease ratio (cumulative %): 12.1%
  Mass: 211.4 g
[1]; 5 g/L, Mar. 16
  Decrease ratio (%/day): 2.2 %/day
  Decrease ratio (cumulative %): 14.0%
  Mass: 206.7 g
[1]; 5 g/L, Mar. 18
  Decrease ratio (%/day): 2.1 %/day
  Decrease ratio (cumulative %): 17.7%
  Mass: 197.8 g
[1]; 5 g/L, Mar. 22
  Decrease ratio (%/day): 2.0 %/day
  Decrease ratio (cumulative %): 24.1%
  Mass: 182.4 g
[1]; 5 g/L, Mar. 23
  Decrease ratio (%/day): 2.8 %/day
  Decrease ratio (cumulative %): 26.3%
  Mass: 177.3 g
[1]; 5 g/L, Mar. 24
  Decrease ratio (%/day): 2.2 %/day
  Decrease ratio (cumulative %): 27.8%
  Mass: 173.5 g
[1]; 5 g/L, Mar. 30
  Decrease ratio (%/day): 2.3 %/day
  Decrease ratio (cumulative %): 37.8%
  Mass: 149.4 g
[1]; 10 g/L, Mar. 10 (date of application)
  Mass: 200.5 g
[1]; 10 g/L, Mar. 11
  Decrease ratio (%/day): 2.9 %/day
  Decrease ratio (cumulative %): 2.9%
  Mass: 194.8 g
[1]; 10 g/L, Mar. 14
  Decrease ratio (%/day): 3 %/day
  Decrease ratio (cumulative %): 11.6%
  Mass: 177.2 g
[1]; 10 g/L, Mar. 15
  Decrease ratio (%/day): 3.3 %/day
  Decrease ratio (cumulative %): 14.5%
  Mass: 171.4 g
[1]; 10 g/L, Mar. 16
  Decrease ratio (%/day): 2.9 %/day
  Decrease ratio (cumulative %): 17.0%
  Mass: 166.5 g
[1]; 10 g/L, Mar. 18
  Decrease ratio (%/day): 2.7 %/day
  Decrease ratio (cumulative %): 21.5%
  Mass: 157.4 g
[1]; 10 g/L, Mar. 22
  Decrease ratio (%/day): 2.5 %/day
  Decrease ratio (cumulative %): 29.5%
  Mass: 141.3 g
[1]; 10 g/L, Mar. 23
  Decrease ratio (%/day): 3.6 %/day
  Decrease ratio (cumulative %): 32.0%
  Mass: 136.3 g
[1]; 10 g/L, Mar. 24
  Decrease ratio (%/day): 2.8 %/day
  Decrease ratio (cumulative %): 33.9%
  Mass: 132.5 g
[1]; 10 g/L, Mar. 30
  Decrease ratio (%/day): 2.9 %/day
  Decrease ratio (cumulative %): 45.3%
  Mass: 109.7 g
Celery
  Degree of occurrence of calcium deficiency: 0.3
Lettuce (Great Lakes)
  Degree of occurrence of calcium deficiency: 0.2
[2]
  Amino acid concentration ratio (treated/untreated): 2.2
[3]
  Amino acid concentration ratio (treated/untreated): 1.5
[4]
  Amino acid concentration ratio (treated/untreated): 1.2
Tomato (fruit: Regina)
  Amino acid concentration ratio (treated/untreated): 1.8
[5]
  Amino acid concentration ratio (treated/untreated): 1.2
[6]; 20 g/L x3, at harvest
  Acidity: 0.8
  Amino acid concentration: 2800 µg/L
[6]; 20 g/L x3, kept in greenhouse (25° C.) for 10 days
  State 10 days after harvest (drying state): dried faster than the untreated grape
[6]; 20 g/L, three times at intervals of one week, at harvest, 21 days after first application
  Sugar content (%): 46%
